Measurements from ChEMBL document CHEMBL4411312, “Design, Synthesis, and Biological Evaluation of New 1-(Aryl-1 H-pyrrolyl)(phenyl)methyl-1 H-imidazole Derivatives as Antiprotozoal Agents” (J Med Chem, 2019).

Key:
[1] = tested on: Trypanosoma brucei rhodesiense; assay: Antiprotozoal activity against Trypanosoma brucei rhodesiense STIB900 trypomastigotes after 72 hrs by Alamar Blue dye-based fluorometric analysis; type: functional, organism-based; conditions: STIB900, 72 h
Leishmania donovani = assay: Antiprotozoal activity against Leishmania donovani MHOM/ET/67/L82 axenic amastigote after 72 hrs by inverted microscopic analysis; type: functional, organism-based; conditions: MHOM/ET/67/L82, 72 h
Plasmodium falciparum = assay: Antiprotozoal activity against erythrocytic stage of Plasmodium falciparum K1 after 48 hrs by [3H]- hypoxanthine incorporation assay; type: functional, organism-based
[2] = Cytotoxicity against rat L6 cels assessed as reduction in cell viability after 72 hrs by Alamar Blue dye-based fluorometric analysis; conditions: L6 cells
[3] = Selectivity index, ratio of CC50 for rat L6 cels to IC50 for Trypanosoma brucei rhodesiense STIB900 trypomastigotes; type: toxicity; conditions: L6 cells, read-out: Ratio IC50
[4] = Selectivity index, ratio of CC50 for rat L6 cels to IC50 for Leishmania donovani MHOM/ET/67/L82 axenic amastigote; type: toxicity; conditions: L6 cells, read-out: Ratio IC50
[5] = Selectivity index, ratio of CC50 for rat L6 cels to IC50 for erythrocytic stage of Plasmodium falciparum K1; type: toxicity; conditions: L6 cells, read-out: Ratio IC50
Trypanosoma cruzi [6] = assay: Antiprotozoal activity against Trypanosoma cruzi Tulahuen C2C4 amastigotes infected in rat L6 cells after 96 hrs by inverted microscopic analysis; type: functional, organism-based; conditions: Tulahuen C2C4, L6, 96 h
Trypanosoma cruzi [7] = assay: Potency index, ratio of benznidazole IC50 to compound IC50 for Trypanosoma cruzi Tulahuen C2C4 amastigotes infected in rat L6 cells after 96 hrs by inverted microscopic analysis; type: functional

| SMILES | IC50 [1] | IC50 (Leishmania donovani) | IC50 (Plasmodium falciparum) | CC50 at 72 h [2] | selectivity ratio [3] | selectivity ratio [4] | selectivity ratio [5] | IC50 (Trypanosoma cruzi [6]) | Ratio IC50 (Trypanosoma cruzi [7]) |
| --- | --- | --- | --- | --- | --- | --- | --- | --- | --- |
| N#Cc1ccc(C(c2ccn(-c3ccc(C#N)cc3)c2)n2ccnc2)cc1 (stereo not drawn) | 27.8 µM | 84.4 µM | 4.09 µM | 139 µM | 5 | 2 | 34 | – | – |
| CCCCCCCCCCCCCCCCOP(=O)([O-])OCC[N+](C)(C)C [MILTEFOSINE] | – | – | – | 137 µM | – | 245 | – | – | – |
| C[C@@H]1CC[C@H]2[C@@H](C)C(=O)O[C@@H]3O[C@@]4(C)CC[C@@H]1[C@]32OO4 [ARTEMISININ] | – | – | 0.007 µM | > 350 µM | – | – | > 50000 | – | – |
| Clc1ccc(C(c2c[nH]cc2-c2ccc(Cl)cc2-c2ccccc2)n2ccnc2)cc1 (stereo not drawn) | 34.4 µM | 15 µM | 0.059 µM | 14.9 µM | – | – | 253 | 0.203 µM | 4 - 12 |
| Nc1nc(N)nc(Nc2ccc([As]3SCC(CO)S3)cc2)n1 (stereo not drawn) [MELARSOPROL] | – | – | – | 28.9 µM | 3280 | – | – | – | – |
| CC(C)c1ccc(-c2c[nH]cc2C(c2ccc(Cl)cc2Cl)n2ccnc2)cc1 (stereo not drawn) | 24.2 µM | 5.22 µM | 0.28 µM | 12.7 µM | – | 2 | 45 | 0.066 µM | 57 |
| CSc1ccc(-c2c[nH]cc2C(c2ccc(Cl)cc2Cl)n2ccnc2)cc1 (stereo not drawn) | – | – | – | – | – | – | – | 0.043 µM | 57 |
| Clc1ccc(C(c2c[nH]cc2-c2ccc(Cl)c3ccccc23)n2ccnc2)c(Cl)c1 (stereo not drawn) | 16.5 µM | 4.83 µM | 0.33 µM | 4.9 µM | – | 1 | 15 | 0.048 µM | – |
| CCN(CC)CCCC(C)Nc1ccnc2cc(Cl)ccc12 (stereo not drawn) [CHLOROQUINE] | – | – | – | 92.8 µM | – | – | – | – | – |
| O=C(Cn1ccnc1[N+](=O)[O-])NCc1ccccc1 [BENZNIDAZOLE] | – | – | – | > 385 µM | – | – | – | – | – |
| CCc1ccc(-c2c[nH]cc2C(c2ccc(Cl)cc2Cl)n2ccnc2)cc1 (stereo not drawn) | 22.5 µM | 4.87 µM | 0.3 µM | 13.3 µM | – | 3 | 45 | 0.066 µM | 57 |
| Clc1ccc(C(c2c[nH]cc2-c2ccc(Cl)cc2-c2ccccc2)n2ccnc2)c(Cl)c1 (stereo not drawn) | 29 µM | 13.9 µM | 0.096 µM | 14.3 µM | – | 1 | 149 | 0.142 µM | 4 - 12 |
| Clc1ccc(-c2c[nH]cc2[C@@H](c2ccc(Cl)cc2Cl)n2ccnc2)cc1 | 12.2 µM | 5.02 µM | 0.11 µM | 5.56 µM | – | 1 | 51 | 0.017 µM | – |
| Clc1ccc(C(c2c[nH]cc2-c2ccc(Cl)cc2-c2cccs2)n2ccnc2)c(Cl)c1 (stereo not drawn) | 8.31 µM | 2.78 µM | 0.27 µM | 4.93 µM | – | 2 | 18 | 0.027 µM | 61 |
| Clc1ccc(-c2c[nH]cc2[C@H](c2ccc(Cl)cc2Cl)n2ccnc2)cc1 | 9.21 µM | – | 0.092 µM | 2.56 µM | – | – | 28 | 0.0009 µM | – |
| Cc1ccc(-c2c[nH]cc2C(c2ccc(Cl)cc2Cl)n2ccnc2)cc1 (stereo not drawn) | 18.8 µM | 5.64 µM | 0.29 µM | 18.4 µM | – | 3 | 63 | 0.05 µM | 57 |
| COc1ccc(-c2c[nH]cc2C(c2ccc(Cl)cc2Cl)n2ccnc2)cc1 (stereo not drawn) | 28.4 µM | 5.51 µM | 0.46 µM | 14.8 µM | – | 3 | 32 | 0.05 µM | 57 |
| Clc1ccc(C(c2c[nH]cc2-c2ccc(Cl)cc2-n2cccc2)n2ccnc2)c(Cl)c1 (stereo not drawn) | 11.9 µM | 10.8 µM | 4.53 µM | 7.67 µM | – | – | 2 | 12 µM | – |
